# Where “and” joins values, the source holds several entries; their conditions need not be identical. Identical values can stand only once. Like-named read-outs stand apart in the source and are kept apart here.
# Tests used:
# adult H. polygyrus [1] = assay type: cell-based, Heligmosomoides polygyrus; details: aerobic; for Worm viability score of individual worm, scale from 0 (dead) to 3 (motile): single worms; for Percent Worms Affected: affected = score equal to or lower than 1.5; for effect on adult H. polygyrus viability: 10 µM, 24-h exposure
# Protocol: (§1) After either 24- or 72 h chemical treatment, worm viability was manually scored by an examiner using a scale from 0 (dead) to 3 (motile); DMSO was used as a negative control in both 24- and 72 h treatments. The percentage of affected worms (i.e., worms with a score equal to or lower than 1.5) in each biological replicate is shown; data are from two biological replicates. Within each boxplot, black horizontal lines denote group medians, boxes span from the 25th to the 75th percentile of each group’s distribution, and whiskers extend to the maximum and minimum values.
# The eleven benzimidazole derivatives were tested at a concentration of 10 µM under aerobic conditions against L3 and adult H. polygyrus.
# For the larval assay, mice feces were collected 2 weeks post-infection and eggs were isolated. The eggs were left on agar at room temperature in the dark for eight to 10 days to allow them to develop into L3. Next, 30–40 L3 were incubated (37 °C, 5% CO2) in the culture medium (RPMI 1640 medium + 1% pen./strep. + 5% amphotericin B) containing the derivatives in 96-well plate (Corning, USA) reaching a final volume of 250 µL for 24 h. For the adult drug screening assay, female NMRI mice were euthanized with CO2 and adult H. polygyrus were dissected out of the intestines. Subsequently, three worms were exposed to the culture medium (RPMI 1640 medium + 1% pen./strep. + 5% amphotericin B) with the derivatives (2 mL) in a 24-well plate (Corning, USA) for either 24 or 72 h. DMSO ( < 1%) served as a negative control in both assays. All conditions were tested in duplicates. Finally, 80 µL of hot water ( ~ 80 °C) for L3 and 500 µL of hot water (~80 °C) for adults were added to the wells to check for their viability under a microscope (Carl Zeiss, Germany). Larvae were categorized as being either alive or dead, depending on whether they moved or not. […] The whole experiment was performed two times i.e., two independent biological replicates for both life stages (L3s and adults) and exposure times (24 and 72 h).
# adult H. polygyrus [2] = experiment: microbe, parasite or virus in culture; assay type: cell-based, Heligmosomoides polygyrus; details: anaerobic, 24 hours after treatment; for killing at 10 µM: Heligmosomoides polygyrus, 24 h, adult H. polygyrus, affected = score equal to or lower than 1.5, read-out: Percent Worms Affected; for # of Worms Affected: worms with score equal to or lower than 1.5
# Protocol: To investigate the impact of the eleven benzimidazole derivatives under anaerobic conditions, an anaerobic chamber with an integrated incubator (Coy Laboratory Products, USA) was used. The same procedure was followed as described for the aerobic drug screening in adult H. polygyrus, but the incubation took place within the anaerobic chamber (37 °C, 85% N2, 10% CO2, 5% H2). Benzimidazole derivatives were tested at a concentration of 10 µM. For scoring, the plates had to be removed from the anaerobic chamber. The whole experiment was performed two times i.e., two independent biological replicates.
# as §1, with “The activities of eleven benzimidazole derivatives were tested against adult H. polygyrus viability in vitro under aerobic (+, white boxplots) and anaerobic (–, coloured boxplots) conditions (see Methods). After” for “After”, “24-hour” for “either 24- or 72 h”, “aerobic” for “24-”, “anaerobic conditions; levamisole was used as a positive control in anaerobic conditions.” for “72 h treatments.”, “values. […]” for “values.”
# [3] = adult H. polygyrus, in vitro, 24 hours, per biological replicate
# [4] = adult H. polygyrus, in vitro, 24 hours
# [5] = adult H. polygyrus, in vitro, 72 hours, per biological replicate
# [6] = adult H. polygyrus, in vitro, 72 hours
# [7] = adult H. polygyrus, replicate 1, 24 hours after treatment
# [8] = adult H. polygyrus, replicate 2, 24 hours after treatment
# [9] = replicate 1, 24 hours after treatment, worms with score equal to or lower than 1.5
# [10] = replicate 2, 24 hours after treatment, worms with score equal to or lower than 1.5
Structure (SMILES),Percent Worms Affected (worms with a score equal to or lower than 1.5) (adult H. polygyrus [1]; [3]),"Worm viability score of individual worm, scale from 0 (dead) to 3 (motile) (adult H. polygyrus [1]; [4])",Percent Worms Affected (worms with a score equal to or lower than 1.5) (adult H. polygyrus [1]; [5]),"Worm viability score of individual worm, scale from 0 (dead) to 3 (motile) (adult H. polygyrus [1]; [6])",Percent Worms Affected (adult H. polygyrus [1]; [7]),Percent Worms Affected (adult H. polygyrus [1]; [8]),# of Worms Affected (adult H. polygyrus [1]; [9]),# of Worms Affected (adult H. polygyrus [1]; [10]),killing at 10 µM (adult H. polygyrus [2]; replicate 1),killing at 10 µM (adult H. polygyrus [2]; replicate 2),# of Worms Affected (adult H. polygyrus [2]; replicate 1),# of Worms Affected (adult H. polygyrus [2]; replicate 2),effect on adult H. polygyrus viability (adult H. polygyrus [1]),# of Worms Affected (adult H. polygyrus [1]; [3]),# of Worms Affected (adult H. polygyrus [1]; [5]),"Worm viability score, individual worms (Worm1-Worm20) (adult H. polygyrus [2]; replicate 2, scale from 0 (dead) to 3 (motile))"
Brc1ccc(Cn2cnc3ccccc32)cc1 [Compound 5542661],17% and 0%,2.5 and 2,17% and 83%,1.5,–,–,–,–,–,–,–,–,–,–,–,–
Cc1nc2ccccc2n1Cc1ccc(Br)cc1 [Compound 5567167],33% and 17%,2.5 and 2 and 1.5,83% and 100%,1.5,33%,17%,2,1,50%,67%,3,4,–,–,–,–
Cc1nc2ccccc2n1Cc1ccccc1Cl [Compound 6707368],0% and 14%,2.5,29% and 100%,1.5,0%,14%,0,1,100%,33%,6,2,–,–,–,–
Clc1ccc(Cn2cnc3ccccc32)c(Cl)c1 [Compound 6750659],33% and 17%,1.5 and 2.5,33% and 100%,1.5,33%,17%,2,1,50%,67%,3,4,–,–,–,–
Cc1ccccc1OCCCCn1cnc2ccccc21 [Compound 7732524],67%,1.25 (4×) and 1,83% and 100%,0.5,100%,67%,6,4,60%,0%,3,0,potent effects,4 and 6,–,–
Clc1ccc(SCCCCn2cnc3ccccc32)cc1 [Compound 7925515],50% and 100%,1.5,100%,–,100%,50%,6,4,100%,83%,5,5,potent effects,–,–,–
Clc1ccccc1OCCCCn1cnc2ccccc21 [Compound 7925804],60% and 67%,1.5 and 2,100% and 83%,1.5,–,–,2,4,50%,–,3,6,potent effects,–,5,2 (3×) and 1.5 (2×) and 1
CC(C)Cc1ccc(C(C)c2nc3ccccc3n2C)cc1 (stereo not shown) [NPD8790],–,–,–,–,–,–,–,–,–,–,–,–,potent effects,–,–,–
Cc1nc2ccccc2n1Cc1ccc(Cl)cc1 [STK697993],17%,2.5 and 1.5,17% and 100%,–,17%,17%,1,1,100%,33%,7,2,–,1,–,–
CCn1c(C(C)c2ccc(CC(C)C)cc2)nc2ccccc21 (stereo not shown) [STK951902],67% and 83%,2 and 1 and 1.5,100% and 67%,–,67%,83%,4,5,100%,67%,6,4,potent effects,–,–,–
CC(C)Cc1ccc(C(C)c2nc3ccccc3n2C(C)C)cc1 (stereo not shown) [STK951903],67% and 14%,1.5 and 2.5 and 2,100%,–,67%,14%,4,1,67%,83%,4,5,–,–,6,–
